Laboratory results taken from US5491242A, “Protein kinase C inhibitors” (Eli Lilly and Company, priority 1995, dated 1996).
Read-outs that look alike come from different tables or passages of the source.

Experiments:
Assay type in all cases: biochemical
[1] = target: PKC gamma (Homo sapiens, UniProt P05129); test: PKC Enzyme Assay, gamma; settings: Table 1
[2] = target: PKC delta (Homo sapiens, UniProt Q05655); test: PKC Enzyme Assay, delta; settings: Table 1
[3] = target: PKC alpha (Homo sapiens, UniProt P17252); test: PKC Enzyme Assay, alpha
Description: (§1) PKC enzymes=alpha, beta I, beta II, gamma, delta, epsilon, eta and zeta
(§2) Assay components in a total volume of 250 μL are the following:
(§3) Vesicles consisting of 120 μg/mL phosphatidylserine (Avanti Polar Lipids) and sufficient diacylglycerol (Avanti Polar Lipids) to activate the enzyme to maximum activity in 20 mM HEPES buffer (Sigma, St. Louis, Mo.), pH 7.5, 940 μM calcium chloride (Sigma, St. Louis, Mo.) for assaying the alpha, beta I, beta II and gamma enzyme only, 1 mM EGTA for all the enzymes, 10 mM magnesium chloride (Sigma, St. Louis, Mo.) and 30 μM (gamma-32P) ATP (DuPont). For all the enzymes either histone type HL (Worthington) or myelin basic protein is used as substrate. The assay is started by addition of protein kinase C enzyme incubated at 30° C. for 10 minutes and stopped by adding 0.5 mL of cold trichloroacetic acid (Amresco) followed by 100 μL of 1 mg/mL bovine serum albumin (Sigma, St. Louis, Mo.). The precipitate is collected by vacuum filtration on glass fiber filters employing a TOMTEC™ filtration system and quantified by counting in a beta scintillation counter.

[4] = target: PKC beta I (Homo sapiens, UniProt P05771); test: PKC Enzyme Assay, beta I; settings: Table 1; read-out: IC50 β1
PKC beta I, sequence (P05771 whole entry): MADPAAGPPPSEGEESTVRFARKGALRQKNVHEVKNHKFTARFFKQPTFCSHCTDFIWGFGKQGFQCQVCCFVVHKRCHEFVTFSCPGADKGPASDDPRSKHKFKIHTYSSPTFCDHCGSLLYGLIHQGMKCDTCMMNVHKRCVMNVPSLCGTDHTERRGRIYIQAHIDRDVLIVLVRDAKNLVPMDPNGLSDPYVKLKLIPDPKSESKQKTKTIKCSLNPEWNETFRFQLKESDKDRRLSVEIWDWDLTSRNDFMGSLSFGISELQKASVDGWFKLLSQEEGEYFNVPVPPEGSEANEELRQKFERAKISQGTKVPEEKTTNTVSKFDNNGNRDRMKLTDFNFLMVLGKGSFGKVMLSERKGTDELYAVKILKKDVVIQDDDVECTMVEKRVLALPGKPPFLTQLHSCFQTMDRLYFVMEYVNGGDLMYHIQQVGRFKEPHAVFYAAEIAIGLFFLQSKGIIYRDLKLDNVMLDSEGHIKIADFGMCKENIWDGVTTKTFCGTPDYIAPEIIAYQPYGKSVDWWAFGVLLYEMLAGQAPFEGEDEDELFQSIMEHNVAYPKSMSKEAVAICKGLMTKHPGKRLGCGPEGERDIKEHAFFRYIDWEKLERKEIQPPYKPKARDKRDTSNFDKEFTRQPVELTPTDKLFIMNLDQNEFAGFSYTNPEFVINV
Description: as §1, §2, §3

[5] = target: T1, PKC zeta (Homo sapiens, UniProt Q05513); test: PKC Enzyme Assay, zeta; settings: Table 1
T1 sequence (Q05513 1-592): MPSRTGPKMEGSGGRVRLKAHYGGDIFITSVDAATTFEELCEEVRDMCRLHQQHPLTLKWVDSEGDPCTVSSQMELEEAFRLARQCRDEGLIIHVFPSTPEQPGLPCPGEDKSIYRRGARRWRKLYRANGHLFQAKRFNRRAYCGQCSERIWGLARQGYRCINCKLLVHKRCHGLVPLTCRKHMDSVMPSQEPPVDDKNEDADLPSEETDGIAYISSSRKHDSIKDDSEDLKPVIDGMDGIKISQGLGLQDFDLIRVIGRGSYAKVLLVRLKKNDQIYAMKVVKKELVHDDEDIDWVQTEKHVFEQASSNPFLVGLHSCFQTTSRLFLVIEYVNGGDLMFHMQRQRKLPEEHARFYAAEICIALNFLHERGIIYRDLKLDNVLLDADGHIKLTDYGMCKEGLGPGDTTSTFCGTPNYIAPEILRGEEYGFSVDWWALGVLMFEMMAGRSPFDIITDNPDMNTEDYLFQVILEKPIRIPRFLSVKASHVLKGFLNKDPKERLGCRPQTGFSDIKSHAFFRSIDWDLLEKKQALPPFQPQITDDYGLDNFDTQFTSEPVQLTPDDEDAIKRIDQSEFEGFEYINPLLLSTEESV
Description: as §1, §2, §3

[6] = target: PKC beta II (Homo sapiens, UniProt P05771); test: PKC Enzyme Assay, beta II
PKC beta II, sequence (P05771 1-673 isoform P05771-2): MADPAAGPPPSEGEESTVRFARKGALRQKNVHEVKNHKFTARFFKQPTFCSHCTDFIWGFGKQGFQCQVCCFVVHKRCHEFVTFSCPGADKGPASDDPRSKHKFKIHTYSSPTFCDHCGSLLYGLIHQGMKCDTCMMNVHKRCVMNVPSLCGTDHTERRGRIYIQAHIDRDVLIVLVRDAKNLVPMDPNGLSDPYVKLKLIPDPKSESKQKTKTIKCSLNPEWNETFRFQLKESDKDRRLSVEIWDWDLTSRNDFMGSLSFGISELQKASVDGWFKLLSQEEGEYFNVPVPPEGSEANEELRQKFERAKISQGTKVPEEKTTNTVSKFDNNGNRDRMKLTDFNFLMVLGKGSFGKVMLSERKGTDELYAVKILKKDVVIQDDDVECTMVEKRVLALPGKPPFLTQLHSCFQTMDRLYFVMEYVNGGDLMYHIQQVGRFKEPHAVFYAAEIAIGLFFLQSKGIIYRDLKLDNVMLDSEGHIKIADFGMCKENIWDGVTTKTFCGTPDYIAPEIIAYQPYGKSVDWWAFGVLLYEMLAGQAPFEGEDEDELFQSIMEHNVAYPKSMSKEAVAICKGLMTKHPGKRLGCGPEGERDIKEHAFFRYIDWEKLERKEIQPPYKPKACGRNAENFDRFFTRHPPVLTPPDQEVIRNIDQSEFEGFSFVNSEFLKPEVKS
Description: as §1, §2, §3

PKC delta, sequence (Q05655 whole entry): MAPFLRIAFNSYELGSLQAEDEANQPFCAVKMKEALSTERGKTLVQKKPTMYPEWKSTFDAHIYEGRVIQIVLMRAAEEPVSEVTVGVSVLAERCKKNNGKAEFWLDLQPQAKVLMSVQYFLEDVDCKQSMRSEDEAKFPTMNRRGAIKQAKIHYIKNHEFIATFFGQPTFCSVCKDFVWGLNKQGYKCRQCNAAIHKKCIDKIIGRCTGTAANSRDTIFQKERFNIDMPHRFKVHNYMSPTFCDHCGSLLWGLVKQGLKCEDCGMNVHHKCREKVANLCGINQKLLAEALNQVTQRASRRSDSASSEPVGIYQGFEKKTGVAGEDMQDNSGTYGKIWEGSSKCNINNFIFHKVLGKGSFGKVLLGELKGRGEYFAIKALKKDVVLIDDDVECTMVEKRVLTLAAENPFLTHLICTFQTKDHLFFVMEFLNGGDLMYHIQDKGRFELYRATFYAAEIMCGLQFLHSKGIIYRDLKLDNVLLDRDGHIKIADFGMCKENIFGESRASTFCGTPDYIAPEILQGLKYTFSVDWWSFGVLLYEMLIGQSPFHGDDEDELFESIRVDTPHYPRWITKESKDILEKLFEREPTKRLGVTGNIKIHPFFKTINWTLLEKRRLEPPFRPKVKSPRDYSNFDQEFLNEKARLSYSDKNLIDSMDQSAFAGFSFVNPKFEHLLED

SMILES | IC50 [1] [µM] | IC50 [2] [µM] | IC50 ([3]; Table 1, read-out: IC50 α) [µM] | IC50 [4] [µM] | IC50 [5] [µM] | IC50 ([6]; Table 1, read-out: IC50 β2) [µM] | IC50 ([3]; read-out: IC50 with respect to the alpha protein kinase C isozyme) [µM] | IC50 ([6]; read-out: 50% inhibition at a concentration for the beta-2 isozyme) [µM]
CC(C)(C)OC(=O)N[C@@H](Cc1ccccc1)C(=O)n1cc(C2=C(c3cn(C(=O)[C@H](Cc4ccccc4)NC(=O)OC(C)(C)C)c4ccccc34)C(=O)NC2=O)c2ccccc21 [Example 3, 3,4-Bis[(1-N-^t BOC)-phenylalanine-3-indolyl]-1H-pyrrol-2,5-dione] | > 100 | > 100 | 83 | 8 | > 100 | 2.6 |  | 
CC(C)(C)OC(=O)NCC(=O)n1cc(C2=C(c3cn(CCCN=[N+]=[N-])c4ccccc34)C(=O)NC2=O)c2ccccc21 [Example 1, 3-[1-(3-azidopropyl)-3-indolyl]-4-[(1-N-^t BOC)-glycine-3-indolyl]-1H-pyrrol-2,5-dione] | 19 | 4.6 |  | 0.26 | 100 |  | 1.4 | 0.031
